# In patent publication US20210220419A1, “Herbal Nutraceutical Formulation to Reduce Oxidative Stress, Viral and Microbial Infections, and Inflammation” (priority 2017, published 2021):
# Where two headings read alike, the source gives them in different places.
# Assays:
# rat pancreatic islets = test: Insulin secretion in rat pancreatic islets (ELISA); assay type: cell-based; settings: 3 μM
# From the text: The objective of the experiment is to evaluate the effect of herbal supplement test composition on insulin secretion in rat pancreatic islets. Insulin, a peptide hormone, is secreted by pancreatic β-cells and is a key regulator in glucose homeostasis. Insulin deficiency leads to insulin-dependent (type 1) diabetes, whereas resistance to insulin action is common in non-insulin-dependent diabetes (type 2), obesity, and endocrine dysfunctions. The pancreatic β-cells are known to be sensitive to the glucose concentration in the blood. When the blood glucose levels are high they secrete insulin into the blood; when the levels are low they cease their secretion of this hormone into the general circulation. Insulin released by the β-cells is the main regulator of glucose levels.
# Firstly, the herbal supplement composition is dissolved in DMSO with sonication for 15 min and centrifuged at 10,000 rpm for 10 minutes at room temperature to remove insoluble debris. Glyburide (CAS: 10238-21-8) and Glucose are used as reference compounds in the present experiment. Glyburide (CAS: 10238-21-8) is dissolved in DMSO and used at 3 μM. […]
# At the end of the 1 hr incubation period, 20 μl of supernatant is gently transferred to another plate. Insulin secretion is measured using the Mercodia Rat Insulin ELISA kit according to the manufacturer's protocol. […]
# Caco-2 cells = test: NBD-cholesterol uptake in Caco-2 cells; assay type: cell-based, human; settings: positive control, 1.25, 2.5, 5 and 10 μM, 48 hrs
# Procedure: The objective of the experiment is to evaluate the effect of the supplement composition on cholesterol uptake in Caco-2 (human epithelial colorectal adenocarcinoma) cells. Cholesterol is both an important structural component of cell membranes and an early intermediate in hormone and bile acid biosynthesis. The supplement composition is dissolved in Dimethyl Sulphoxide (DMSO) with sonication for 15 min and centrifuged at 10,000 rpm for 10 min at room temperature to remove insoluble debris. The reference compound used in the present experiment is U-18666A (CAS: 3039-71-2), which increases cholesterol uptake by inhibiting trafficking of synthesized cholesterol. The U-18666A is dissolved in DMSO and used at a concentration of about 1.25, 2.5, 5 and 10 μM. Moreover, U-18666A is used as a positive control. The reagent used is 3-hexanoyl-NBD Cholesterol. Caco-2 cells are maintained at 60-70% confluence in complete growth medium EMEM containing 20% FBS and required antibiotic. For the assay, cells are harvested using 0.25% trypsin EDTA. The trypsinized cells are centrifuged at 1200 rpm for 5 minutes and re-suspended in growth medium. […] At the end of the incubation period, the plates are washed twice with PBS and cholesterol uptake is calculated by measuring NBD cholesterol fluorescence (Ex 485 nm, Em 535 nm). […]
# [1] = DPPH radical scavenging assay (Experiment 2); assay type: biochemical
# Procedure: Gallic acid (reference inhibitor) preparation. For gallic acid, a stock of 200 μg/ml was prepared by dissolving 2 mg of gallic acid in 10 ml of methanol. Further dilutions were made as required with methanol. […] In brief, the total reaction mixture contained methanol/vehicle buffer/positive control/various concentrations of test solution and DPPH to a final concentration of 0.132 mM. The reaction mixture was incubated at 25° C. for 20 minutes. Following incubation the absorbance was read at 510 nm using a micro-well plate reader (Molecular devices Versamax microplate reader). A control reaction was carried out without test samples. The % inhibition values were calculated as follows: [formula] Where, Absorbance=Final Absorbance−Initial absorbance. IC50 was calculated using log-probit analysis.
# [2] = Super oxide radical scavenging assay (NADH/NBT/PMS); assay type: biochemical
# Procedure: (§1) Gallic acid (reference inhibitor) preparation, For gallic acid, a stock of 500 μg/ml was prepared by dissolving 5 mg of gallic acid in 10 ml of 0.1M phosphate buffer pH 7.4. […] The assay was carried out as per the method of Yen et al. with modifications. In brief, the reaction mixture contained 0.1M phosphate buffer pH 7.4/vehicle buffer/positive control/test sample of various concentrations, 292.5 μM NADH, 37.5 μM NBT and 15 μM PMS. The plate was mixed and incubated at 25° C. for 5 minutes. The absorbance was measured at 560 nm in a micro-plate reader (Versamax, Molecular devices). A control reaction was carried out without test samples. The % inhibition values were calculated as follows: [formula] IC50 was calculated using log-probit analysis.
# [3] = Solubility of sample preparation upon visual inspection; assay type: physicochemical
# Procedure: Briefly, 12.5 mg of the herbal composition 2 contents was weighed, dissolved in 312.5 μl of DMSO and the volume was made up to 10 ml with 100% methanol. Further dilutions were done in 100% methanol containing 3.125% of DMSO. […] For calculation purposes the sample was considered to be 100% soluble.
# Gallic acid (reference inhibitor) preparation. For gallic acid, a stock of 200 μg/ml was prepared by dissolving 2 mg of gallic acid in 10 ml of methanol. Further dilutions were made as required with methanol.
# Briefly, 29.73 mg of the Herbal composition 2 contents was weighed, dissolved in 500 μl of DMSO and the volume was made up to 25 ml with phosphate buffered saline. […] The sample was filtered and the filtrate was used for the assay. For calculation purposes the sample was considered to be 100% soluble.
# Trolox (reference inhibitor) preparation, For trolox, a stock of […] was prepared by dissolving 2 mg of trolox in 2 ml of phosphate buffered saline. […] Further dilutions were made as required with phosphate buffered saline.
# Briefly, 8 mg of the Herbal composition 2 contents was weighed, dissolved in 200 μl of DMSO and the volume was made up to 2 ml with 0.1M phosphate buffer pH 7.4. Further dilutions were done in 0.1M phosphate buffer pH 7.4 containing 10% of DMSO. […] For calculation purposes the sample was considered to be 100% soluble.
# as §1, with “samples.” for “samples. The % inhibition values were calculated as follows: [formula] IC50 was calculated using log-probit analysis.”
# [4] = test system: Low Density Lipoproteins, Human Plasma; test: LDL oxidation in a cell-free system, Cu2+ induced (Experiment 10); assay type: biochemical; settings: reference compounds, FIG. 6B
# LDL oxidation = LDL oxidation inhibition assay, human serum, copper sulphate (Experiment 3); assay type: biochemical
# Procedure: The sample was filtered and the filtrate was used for the assay. […] Trolox (reference inhibitor) preparation, For trolox, a stock of […] was prepared by dissolving 2 mg of trolox in 2 ml of phosphate buffered saline. […] Further dilutions were made as required with phosphate buffered saline. The assay was carried out as per the method of Hodgson et al with modifications. In brief, the reaction mixture contained phosphate buffered saline/vehicle buffer/positive control/test sample of various concentrations and serum from fasting human. Copper sulphate solution was added to the reaction mixture to start the reaction. The reaction mix was mixed and read immediately at 234 nm using a UV-VIS spectrophotometer, for the initial reading, and incubated. After the completion of incubation period, the final absorbance was measured at 234 nm. A control reaction was carried out without test samples. The % inhibition values were calculated as follows: [formula] Where, Absorbance=Final Absorbance−Initial absorbance. IC50 was calculated using log-probit analysis.
# [5] = DPPH radical scavenging activity, cell-free assay (Experiment 7); assay type: biochemical; settings: 200 μM DPPH, 30 min
# Procedure: The objective of this experiment is to evaluate the effect of the supplement concentration on DPPH radical scavenging activity in a cell-free assay. The supplement concentration is dissolved in DMSO with sonication for 15 min and centrifuged at 10,000 rpm for 10 min at room temperature to remove insoluble debris. 2,2-Diphenyl-1-picrylhydrazyl (DPPH) is used as a reagent for this experiment. DPPH is an antioxidant reagent that is used as a free radical trap or scavenger. The color of DPPH changes from red to yellow as its scavenging activity increases. This is measured by absorbance at 517 nm. The reference compound used is Trolox (CAS: 53188-07-1). The Trolox is dissolved in DMSO and used at different concentrations. Trolox is used as positive control.
# A reaction mix is made in 200 μL methanol containing 200 μM of DPPH and various concentrations of the supplement. The mixture is mixed gently with a pipette and left to stand for 30 min in the dark, after which absorbance readings are taken at 517 nm. The change in DPPH absorbance is calculated relative to the absorbance of DPPH alone i.e. without the supplement. The DMSO concentration in the assay is maintained at less than equal to 1.0%. The data is fit to a non-linear regression using Graph pad Prism (version 5.0). […]
smiles,measurement,setting,value
COc1ccc(Cl)cc1C(=O)NCCc1ccc(S(=O)(=O)NC(=O)NC2CCCCC2)cc1 [Glyburide],"Insulin secretion, effect in words",rat pancreatic islets,significant increase
CCN(CC)CCO[C@H]1CC[C@@]2(C)C(=CC[C@@H]3[C@@H]2CC[C@]2(C)C(=O)CC[C@@H]32)C1 [U-18666A],Increase in NBD-cholesterol uptake,Caco-2 cells,up to 25%
"O=C(O)c1cc(O)c(O)c(O)c1 [Gallic Acid, Gallic acid]","% Inhibition (Mean ± SEM), DPPH",[1]; 0.5 μg/ml,8.71 ± 1.12%
same,"% Inhibition (Mean ± SEM), DPPH",[1]; 1.5 μg/ml,32.14 ± 2.42%
same,"% Inhibition (Mean ± SEM), DPPH",[1]; 2.5 μg/ml,60.58 ± 2.84%
same,"% Inhibition (Mean ± SEM), DPPH",[1]; 5 μg/ml,80.52 ± 0.57%
same,"IC50 (95% Confidence Interval), DPPH radical scavenging",[1]; log-probit analysis,2.09 µg/mL
same,"% Inhibition (Mean ± SEM), super oxide radical",[2]; 5 μg/ml,27.00 ± 3.37%
same,"% Inhibition (Mean ± SEM), super oxide radical",[2]; 10 μg/ml,32.89 ± 3.26%
same,"% Inhibition (Mean ± SEM), super oxide radical",[2]; 20 μg/ml,47.80 ± 4.26%
same,"% Inhibition (Mean ± SEM), super oxide radical",[2]; 40 μg/ml,69.50 ± 1.00%
same,"% Inhibition (Mean ± SEM), super oxide radical",[2]; 80 μg/ml,83.67 ± 0.00%
same,"IC50 (95% Confidence Interval), super oxide radical scavenging",[2]; log-probit analysis,17.86 µg/mL
same,Solubility upon visual inspection,[3],approximately 100%
same,Solubility upon visual inspection,[3]; pH 7.4,approximately 100%
O=C1O[C@H]([C@@H](O)CO)C(O)=C1O [ascorbic acid],"Inhibition of LDL oxidation, in words",[4],significant inhibition
Cc1c(C)c2c(c(C)c1O)CCC(C)(C(=O)O)O2 (centres unmarked) [Trolox],"% Inhibition (Mean ± SEM), LDL oxidation",LDL oxidation; 0.25 μM,48.80 ± 6.21%
same,"% Inhibition (Mean ± SEM), LDL oxidation",LDL oxidation; 0.5 μM,73.07 ± 3.39%
same,"% Inhibition (Mean ± SEM), LDL oxidation",LDL oxidation; 1.0 μM,76.33 ± 0.07%
same,"% Inhibition (Mean ± SEM), LDL oxidation",LDL oxidation; 2.0 μM,79.04 ± 0.64%
same,IC50,"LDL oxidation; log-probit analysis, read-out: IC50 (95% Confidence Interval), LDL oxidation inhibition",180 nM
same,"EC50, DPPH scavenging activity",[5],28 µg/mL
same,Solubility upon visual inspection,[3],approximately 100%
